Laboratory results published in patent US8178506B2, “Oligomeric compounds and compositions for use in modulation of small non-coding RNAs” (Regulus Therapeutics Inc., priority 2003, dated 2012).
In the oligonucleotide strings, read from the 5' end, every base follows the letter of its sugar. An asterisk marks phosphorothioate; unmarked linkages are phosphodiester. Other units and linkages are bracketed, terminal groups are in braces. A string of capitals states the bases alone. e = 2'-O-(2-methoxyethyl) (MOE); [5mC] = 5-methylcytosine; d = 2'-deoxy (DNA)

Test system: HeLa cells
Test: Cell cycle assay in HeLa cells
Type: cell-based, human
Details: HeLa cells; for % cells in cell cycle phase: G1 / % cells in cell cycle phase: G2/M / % cells in cell cycle phase: S / % cells in cell cycle phase: aneuploid / % cells in cell cycle phase: subG1: 48 hours after treatment, relative to untreated control (UTC=100)
Procedure: In some embodiments, HeLa cells were plated on collagen-coated 24-well plates at 50,000-60,000 cells per well, and allowed to attach to wells overnight. In some embodiments, HeLa cells were synchronized by double thymidine block (cells were washed three times with PBS, then grown in 10% FBS containing 2 mM thymidine; then 19 hours later, cells were washed three times in PBS, 10% FBS for 9 hours; cells were then incubated in 10% FBS, 2 mM thymidine for 15 hours; then washed three times with PBS, 10% FBS and samples were taken every two hours over a 16 hour period). A portion of each time sample was fixed with ethanol and treated with propidium iodide and subjected to FACs analysis for determination of the percentage of cells in each phase of the cell cycle. […] HeLa cells treated with 10 μM cisplatin or 100 ng/ml nocodazole were used as controls for G1-phase and late G2/M-phases, respectively. From the remaining portion of each of these time samples, total RNA was isolated and used to assess the expression of cell cycle marker mRNAs using the real-time RT-PCR methods and/or used to screen microarrays to assess the expression of miRNAs over the course of the cell cycle. It was observed that several miRNAs are expressed in a cell-cycle-dependent manner. Shown in Table 30 are the mRNA levels of the E2F1 transcription factor and topoisomerase 2A (Top2A), which vary over the course of the cell cycle and can be used for comparison to the experimental groups for the confirmation of cell cycle phase. Data are an average of three trials.
In some embodiments, HeLa cells were also treated with oligomeric compounds targeting miRNAs. […] The medium was removed from the plates. Each well was washed in 250 μl of PBS. […] Control cells received LIPOFECTIN™ only. […] After 24 hours (Table 31) or 48 hours (Table 32), cells were prepared for flow cytometry analysis to generate a cell cycle profile. The cell cycle profile was analyzed with the ModFit program (Verity Software House, Inc., Topsham Me.).
The random-mer ISIS 29848 (SEQ ID NO: 737) was used as a negative control, and ISIS 183891 (SEQ ID NO: 847), targeting kinesin-like 1/Eg5, was included as a positive control. Data are expressed as percentage of cells in each phase relative to the untreated control (UTC); values above 100 are considered to indicate a delay or arrest in that phase of the cell cycle. […] In some cases, the same oligomeric compound was tested in repeated experiments.
In accordance with the present invention, certain oligomeric compounds targeting miRNAs were selected for dose response studies. Using the cell cycle assay described above, the cell cycle profiles of HeLa or A549 cells treated with varying concentrations of oligomeric compounds of the present invention were assessed.
HeLa cells were treated with 25-, 50-, 100- or 150 nM of the oligomeric compounds ISIS
Numbers 327902 (SEQ ID NO: 320) and 328383 (SEQ ID NO: 492), both targeted against mir-192, and ISIS 327905 (SEQ ID NO: 323), targeting mir-205, and ISIS 328403 (SEQ ID NO: 512), targeting mir-106. Cells treated with increasing concentrations of oligomeric compounds were compared to untreated cells, to assess the dose-dependency of the observed delay or arrest. The random-mer ISIS 29848 was used as a negative control. Cells were prepared for flow cytometry 48-hours after oligonucleotide treatment, as described, supra.

[1] = 150 nM oligomeric compound, 24 hours, relative to untreated control (UTC = 100)
[2] = 150 nM, 48 hours, relative to untreated control

Row | Substance | % cells aneuploid [1] | % cells in cell cycle phase G1 [1] | % cells in cell cycle phase G2/M [1] | % cells in cell cycle phase S [1] | % cells in cell cycle phase subG1 [1] | % cells in cell cycle phase: G1 (150 nM oligomeric compound) | % cells in cell cycle phase: G2/M (150 nM oligomeric compound) | % cells in cell cycle phase: S (150 nM oligomeric compound) | % cells in cell cycle phase: aneuploid (150 nM oligomeric compound) | % cells in cell cycle phase: subG1 (150 nM oligomeric compound) | % cells in cell cycle phase G1 [2] | % cells in cell cycle phase G2/M [2] | % cells in cell cycle phase S [2] | % cells in cell cycle phase aneuploid [2] | % cells in cell cycle phase subG1 [2]
1 | 328727 (antisense e[5mC]*eT*eG*e[5mC]*eT*d[5mC]*d[5mC]*dA*dG*dA*dG*d[5mC]*d[5mC]*d[5mC]*dG*eA*eG*eT*e[5mC]*eG) [compound 328727] | 161% | 133% | 105% | 81% | 245% | 68% | 124% | 152% | 140% | 846% | – | – | – | – | –
2 | 328749 (antisense e[5mC]*eA*eG*e[5mC]*e[5mC]*dT*dG*d[5mC]*d[5mC]*dA*d[5mC]*d[5mC]*dG*d[5mC]*d[5mC]*eG*e[5mC]*eT*eT*eT) [compound 328749] | 138% | 126% | 110% | 82% | 312% | 37% | 246% | 129% | 65% | 962% | – | – | – | – | –
3 | 328780 (antisense eT*eG*eT*e[5mC]*eA*dT*dG*dG*dA*d[5mC]*dA*dG*dG*dA*dT*eG*eA*eA*eT*eA) [compound 328780] | 149% | 96% | 136% | 87% | 124% | 83% | 110% | 130% | 133% | 917% | – | – | – | – | –
4 | 338666 (antisense TCACGTGGAGAGGAGTTAAA; all 2'-MOE, all phosphorothioate, methylation of C not given here) [compound 338666] | 102% | 123% | 158% | 63% | 235% | 44% | 217% | 136% | 125% | 1832% | 92% | 130% | 98% | 151% | 214%
5 | 338678 (antisense CTGGTTGGGTATGAGACAGA; all 2'-MOE, all phosphorothioate, methylation of C not given here) [compound 338678] | 202% | 122% | 131% | 75% | 162% | 81% | 188% | 78% | 179% | 1158% | 103% | 105% | 94% | 132% | 129%
6 | 338690 (antisense TAGACAAAAACAGACTCTGA; all 2'-MOE, all phosphorothioate, methylation of C not given here) [compound 338690] | 194% | 124% | 123% | 78% | 149% | 91% | 112% | 110% | 190% | 413% | – | – | – | – | –
